{"source": "patent US20260355225A1", "about": "(priority 2022, published 2026)", "key": {"[1]": {"assay": "Cytotoxicity of D-xylose alone or + insulin, MTT assay, absence of viral infection (Example 2)", "settings": "human, hela tzmbl cells"}, "[2]": {"system": "HeLa TZMBL cells", "assay": "Cytotoxicity of D-xylose alone or + insulin, MTT assay, absence of viral infection (Example 2)"}, "[3]": {"assay": "Antiviral assay against HIV-1 NL4-3, percentage of infected cells by immunofluorescence (Example 2)", "settings": "human, hela tzmbl cells, Viability Percentages, replicate wells"}, "[4]": {"system": "HIV-1 NL4-3", "assay": "Antiviral assay against HIV-1 NL4-3, percentage of infected cells by immunofluorescence (Example 2)", "settings": "Human immunodeficiency virus 1, NL43, 48 h"}, "[5]": {"system": "SARS-CoV-2", "assay": "Antiviral assay, inhibition of virus-induced cytopathic effect (CPE) of SARS-CoV-2 by MTT assay (Example 1)", "settings": "remdesivir at the time of infection; for Viability percentage: 4320 min"}, "[6]": {"system": "Vero AD cells", "assay": "Cytotoxicity of D-xylose, MTT assay, absence of viral infection (Example 1)", "format": "cell-based", "settings": "remdesivir at the time of infection", "procedure": "(§1) Cells (Vero E6) were used, with two modes of administration: either at the same time or 6 h before infection with SARS-CoV-2 (isolated early).\n(§2) The readout for this test is CPE, so the infection will be stopped at 72 hpi (hours post-infection), and the compound will remain for the duration of the experiment. In parallel, the cytotoxicity of the same compound concentrations will be tested in the absence of viral infection.\n(§3) The day before the experiment, the 8,000 cells/well are seeded in two 96-well plates (clear, Sarstedt), one for the antiviral study and one for the cytotoxicity study.\n(§4) 134.4 μl of the 1 M composition is transferred to 1,465.6 μl of infection medium (=84 mM, twice the final maximum concentration).\n(§5) Next, the cell support in the cytotoxicity plate is removed.\n(§6) Immediately afterwards, 50 μl of undiluted infection medium is added to all the wells.\n(§7) Next, 50 μl of infection medium without diluent is added to columns 4 to 6.\n(§8) Next, the plate is incubated at 37 °C, 5% CO2 for 48 h.\n(§9) After 72 h, when the CPE is evident, an MTT assay is performed for the antiviral and cytotoxicity plates."}, "[7]": {"assay": "Cytotoxicity of D-xylose, MTT assay, absence of viral infection (Example 1)", "format": "cell-based", "settings": "monkey, vero cells, remdesivir at the time of infection, read-out: Viability percentage", "procedure": "as §1, §2, §3, §4, §5, §6, §7, §8, §9"}, "[8]": {"system": "glycated hemoglobin (HbA1c)", "settings": "healthy person; cited from earlier work"}, "[9]": {"system": "SARS-CoV-2", "settings": "pre-incubation of 25 minutes prior to infection; cited from earlier work"}, "[10]": {"settings": "AZT 0.002 μM, 2880 min, 0.002 µM"}, "[11]": {"settings": "AZT 0.007 μM, 2880 min, 0.007 µM"}, "[12]": {"settings": "AZT 0.062 μM, 2880 min, 0.062 µM"}, "[13]": {"settings": "AZT 0.556 μM, 2880 min, 0.556 µM"}, "[14]": {"settings": "AZT 1.667 μM, 2880 min, 1.667 µM"}, "[15]": {"settings": "Triton added to untreated cells as control"}}, "note": "Several values for one entry are separate records, joined by “and”; a condition that tells them apart may be missing. Equal values may be shown once.", "data": [{"compound": "Cc1cn([C@H]2C[C@H](N=[N+]=[N-])[C@@H](CO)O2)c(=O)[nH]c1=O", "note": "[AZT, 3-azido-3-deoxythymidine, reference compound]", "values": [{"measurement": "cytotoxicity at 48 h, 0.007 µM", "setting": "[1]; Cytotoxicity percentage, AZT 0.007 μM", "result": 5.07, "unit": "%"}, {"measurement": "cytotoxicity at 48 h, 0.062 µM", "setting": "[1]; Cytotoxicity percentage, AZT 0.062 μM", "result": 4.36, "unit": "%"}, {"measurement": "viability at 48 h, 0.002 µM", "setting": "[1]; Viability percentage, AZT 0.002 μM", "result": 102, "unit": "%"}, {"measurement": "viability at 48 h, 0.007 µM", "setting": "[1]; Viability percentage, AZT 0.007 μM", "result": 94.9, "unit": "%"}, {"measurement": "viability at 48 h, 0.062 µM", "setting": "[1]; Viability percentage, AZT 0.062 μM", "result": 95.6, "unit": "%"}, {"measurement": "viability at 48 h, 0.556 µM", "setting": "[1]; Viability percentage, AZT 0.556 μM", "result": 97.6, "unit": "%"}, {"measurement": "viability at 48 h, 1.667 µM", "setting": "[1]; Viability percentage, AZT 1.667 μM", "result": 102, "unit": "%"}, {"measurement": "viability at 48 h, 5 µM", "setting": "[1]; Viability percentage, AZT 5.000 μM", "result": 96.9, "unit": "%"}, {"measurement": "Results for Cytotoxicity (MTT readout)", "setting": "[2]; AZT 0.002 μM", "result": "2.455 and 2.474 and 2.438"}, {"measurement": "Cytotoxicity percentage", "setting": "[2]; [10]", "result": "−1.89% and −2.69% and −1.17%"}, {"measurement": "Viability percentage", "setting": "[2]; [10]", "result": "102.69% and 101.17%"}, {"measurement": "Results for Cytotoxicity (MTT readout)", "setting": "[2]; AZT 0.007 μM", "result": "2.29 and 2.333 and 2.278"}, {"measurement": "Cytotoxicity percentage", "setting": "[2]; [11]", "result": "3.26% and 5.58%"}, {"measurement": "Viability percentage", "setting": "[2]; [11]", "result": "96.74% and 94.42%"}, {"measurement": "Results for Cytotoxicity (MTT readout)", "setting": "[2]; AZT 0.062 μM", "result": "2.307 and 2.356 and 2.337"}, {"measurement": "Cytotoxicity percentage", "setting": "[2]; [12]", "result": "2.29% and 3.09%"}, {"measurement": "Viability percentage", "setting": "[2]; [12]", "result": 97.71, "unit": "%"}, {"measurement": "Results for Cytotoxicity (MTT readout)", "setting": "[2]; AZT 0.556 μM", "result": "2.353 and 2.414 and 2.406"}, {"measurement": "Cytotoxicity percentage", "setting": "[2]; [13]", "result": "2.42% and −0.16% and 0.18%"}, {"measurement": "Viability percentage", "setting": "[2]; [13]", "result": "100.16% and 99.82%"}, {"measurement": "Results for Cytotoxicity (MTT readout)", "setting": "[2]; AZT 1.667 μM", "result": "2.46 and 2.505 and 2.469"}, {"measurement": "Cytotoxicity percentage", "setting": "[2]; [14]", "result": "−2.10% and −4.00% and −2.48%"}, {"measurement": "Viability percentage", "setting": "[2]; [14]", "result": "104.00% and 102.48%"}, {"measurement": "Results for Cytotoxicity (MTT readout)", "setting": "[2]; AZT 5.000 μM", "result": "2.337 and 2.402 and 2.36"}, {"measurement": "Cytotoxicity percentage", "setting": "[2]; AZT 5.000 μM, 2880 min, 5 µM", "result": "3.09% and 0.35% and 2.12%"}, {"measurement": "Viability percentage", "setting": "[2]; AZT 5.000 μM, 2880 min, 5 µM", "result": "99.65% and 97.88%"}, {"measurement": "viability at 48 h, 0.002 µM", "setting": "[3]; AZT 0.002 μM", "result": 29.9, "unit": "%"}, {"measurement": "viability at 48 h, 0.007 µM", "setting": "[3]; AZT 0.007 μM", "result": 48.2, "unit": "%"}, {"measurement": "viability at 48 h, 0.062 µM", "setting": "[3]; AZT 0.062 μM", "result": 74.2, "unit": "%"}, {"measurement": "viability at 48 h, 0.556 µM", "setting": "[3]; AZT 0.556 μM", "result": 92.5, "unit": "%"}, {"measurement": "viability at 48 h, 1.667 µM", "setting": "[3]; AZT 1.667 μM", "result": 96.8, "unit": "%"}, {"measurement": "viability at 48 h, 5 µM", "setting": "[3]; AZT 5.000 μM", "result": 99.1, "unit": "%"}, {"measurement": "activity at 0.002 µM", "setting": "[4]; read-out: % Infection, AZT 0.002 μM, replicate wells", "result": 13.3, "unit": "%"}, {"measurement": "activity at 0.007 µM", "setting": "[4]; read-out: % Infection, AZT 0.007 μM, replicate wells", "result": 9.89, "unit": "%"}, {"measurement": "activity at 0.062 µM", "setting": "[4]; read-out: % Infection, AZT 0.062 μM, replicate wells", "result": 5.07, "unit": "%"}, {"measurement": "activity at 0.556 µM", "setting": "[4]; read-out: % Infection, AZT 0.556 μM, replicate wells", "result": 1.7, "unit": "%"}, {"measurement": "activity at 1.667 µM", "setting": "[4]; read-out: % Infection, AZT 1.667 μM, replicate wells", "result": 0.89, "unit": "%"}, {"measurement": "activity at 5 µM", "setting": "[4]; read-out: % Infection, AZT 5.000 μM, replicate wells", "result": 0.47, "unit": "%"}]}, {"compound": "CCC(CC)COC(=O)[C@H](C)N[P@](=O)(OC[C@H]1O[C@@](C#N)(c2ccc3c(N)ncnn23)[C@H](O)[C@@H]1O)Oc1ccccc1", "note": "[Remdesivir, reference compound]", "values": [{"measurement": "absorbance at 570 nm", "setting": "[5]; 0.16 μm", "result": "0.086 and 0.077 and 0.078"}, {"measurement": "absorbance at 570 nm", "setting": "[5]; 0.31 μm", "result": "0.084 and 0.098"}, {"measurement": "absorbance at 570 nm", "setting": "[5]; 0.63 μm", "result": 0.094}, {"measurement": "absorbance at 570 nm", "setting": "[5]; 1.25 μm", "result": "0.127 and 0.137 and 0.128"}, {"measurement": "Viability percentage", "setting": "[5]; 1.25 μm", "result": "47.72% and 46.55% and 58.30%"}, {"measurement": "absorbance at 570 nm", "setting": "[5]; 2.5 μm", "result": "0.178 and 0.195"}, {"measurement": "Viability percentage", "setting": "[5]; 2.5 μm", "result": "92.36% and 106.46% and 126.43%"}, {"measurement": "absorbance at 570 nm", "setting": "[5]; 5 μm", "result": "0.198 and 0.215 and 0.174"}, {"measurement": "Viability percentage", "setting": "[5]; 5 μm", "result": "101.76% and 129.96% and 149.93%"}, {"measurement": "absorbance at 570 nm", "setting": "[5]; 10 μm", "result": "0.169 and 0.199 and 0.188"}, {"measurement": "Viability percentage", "setting": "[5]; 10 μm", "result": "118.21% and 95.89% and 131.13%"}, {"measurement": "Viability percentage", "setting": "[5]; 20 μm", "result": "80.62% and 86.49% and 79.44%"}, {"measurement": "Viability percentage", "setting": "[6]; 0.31 μm", "result": 99.84, "unit": "%"}, {"measurement": "Viability percentage", "setting": "[6]; 0.63 μm", "result": 108.33, "unit": "%"}, {"measurement": "Viability percentage", "setting": "[6]; 1.25 μm", "result": "110.83% and 112.82%"}, {"measurement": "Viability percentage", "setting": "[6]; 2.5 μm", "result": "107.83% and 115.32%"}, {"measurement": "Viability percentage", "setting": "[6]; 5 μm", "result": 122.31, "unit": "%"}, {"measurement": "Viability percentage", "setting": "[6]; 10 μm", "result": 106.83, "unit": "%"}, {"measurement": "Viability percentage", "setting": "[6]; 20 μm", "result": "94.35% and 93.35%"}, {"measurement": "viability at […]", "setting": "[7]; 0.16 μm", "result": 100, "unit": "%"}, {"measurement": "viability at 0.31 µM", "setting": "[7]; 0.31 μm", "result": 106, "unit": "%"}, {"measurement": "viability at 0.63 µM", "setting": "[7]; 0.63 μm", "result": 102, "unit": "%"}, {"measurement": "viability at 1.25 µM", "setting": "[7]; 1.25 μm", "result": 103, "unit": "%"}, {"measurement": "viability at 2.5 µM", "setting": "[7]; 2.5 μm", "result": 112, "unit": "%"}, {"measurement": "viability at 5 µM", "setting": "[7]; 5 μm", "result": 110, "unit": "%"}, {"measurement": "viability at 10 µM", "setting": "[7]; 10 μm", "result": 105, "unit": "%"}, {"measurement": "viability at 20 µM", "setting": "[7]; 20 μm", "result": 101, "unit": "%"}]}, {"compound": "OC[C@@H](O)[C@H](O)[C@@H](O)CO", "note": "[xylitol, reference compound]", "values": [{"measurement": "effect on glycated hemoglobin (HbA1c) levels", "setting": "[8]", "result": "little or no effect"}]}, {"compound": "Triton [reference compound]", "values": [{"measurement": "Cytotoxicity percentage", "setting": "[2]; [15]", "result": "99.99% and 100.03%"}, {"measurement": "Results for Cytotoxicity (MTT readout)", "setting": "[2]; [15]", "result": "0.040 and 0.039"}, {"measurement": "Viability percentage", "setting": "[2]; [15]", "result": "0.01% and −0.03%"}]}, {"compound": "heparin", "values": [{"measurement": "inhibition of SARS-CoV-2 viral attachment", "setting": "[9]", "result": "inhibits SARS-CoV-2 viral attachment"}]}]}
